The source of these data is patent publication US20220041647A1, “ESTRA-1,3,5(10)-TRIENE COMPOUNDS CONDENSED IN POSITION 16(17) WITH A PYRAZOLE RING AS INHIBITORS OF 17-HSD1” (FORENDO PHARMA LTD, priority 2018, published 2022).

The target of assay [1] is T1, recombinant human 17β-HSD1 (Homo sapiens, UniProt P14061).
T1 construct: made in house; host or cells: Sd9 (Sf9) insect cells, baculovirus (Bac to Bac Expression System)
T1 sequence (P14061 1-328): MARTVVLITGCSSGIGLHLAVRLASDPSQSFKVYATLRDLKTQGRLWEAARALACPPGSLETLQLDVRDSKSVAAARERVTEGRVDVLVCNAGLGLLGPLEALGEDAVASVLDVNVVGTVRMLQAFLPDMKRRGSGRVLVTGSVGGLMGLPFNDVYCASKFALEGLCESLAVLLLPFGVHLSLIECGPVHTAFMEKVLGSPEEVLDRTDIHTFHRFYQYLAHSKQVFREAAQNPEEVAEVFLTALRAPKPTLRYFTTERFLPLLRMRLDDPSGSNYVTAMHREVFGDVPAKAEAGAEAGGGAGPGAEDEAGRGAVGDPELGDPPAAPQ
In words: Inhibition of recombinant human 17β-HSD1 (estrone to estradiol conversion, HPLC/radioactivity). The format is biochemical. Particulars: compound 100 nM; 30 nM estrone, 1 mM NADPH, 30 min RT. In short, it runs like this:
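Microsomal human 17β-HSD1 from Sf9 baculovirus (1 μg/ml) was incubated 30 min at RT in 20 mM KH2PO4 pH 7.4 with 30 nM ^3H-estrone, 1 mM NADPH and inhibitor at 1 μM or 0.1 μM (1% DMSO). Estrone and estradiol were separated by HPLC with radioactivity detection. % inhibition = 100 − % conversion relative to uninhibited control.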

For assay [2], the target named is T2, recombinant human 17β-HSD2 (Homo sapiens, UniProt P37059).
T2 construct: made in house; host or cells: Sd9 (Sf9) insect cells, baculovirus (Bac to Bac Expression System)
T2 sequence (P37059 1-387): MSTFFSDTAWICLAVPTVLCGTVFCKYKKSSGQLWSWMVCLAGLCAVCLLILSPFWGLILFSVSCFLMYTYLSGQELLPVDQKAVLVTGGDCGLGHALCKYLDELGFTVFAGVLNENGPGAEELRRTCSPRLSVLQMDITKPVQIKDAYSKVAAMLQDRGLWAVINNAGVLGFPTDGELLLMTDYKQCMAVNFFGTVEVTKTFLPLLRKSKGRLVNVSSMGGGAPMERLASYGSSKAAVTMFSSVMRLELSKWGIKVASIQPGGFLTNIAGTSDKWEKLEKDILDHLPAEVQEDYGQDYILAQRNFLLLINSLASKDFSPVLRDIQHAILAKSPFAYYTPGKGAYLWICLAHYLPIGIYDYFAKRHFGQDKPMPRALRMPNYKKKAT
In words: Inhibition of recombinant human 17β-HSD2 (estradiol to estrone conversion, HPLC/radioactivity). In kind it is biochemical. Particulars: compound 1 μM; 50 nM estradiol, 1 mM NADH, 30 min RT. In short, it runs like this:
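Membrane extract of Sf9 cells expressing recombinant human 17β-HSD2 (4 μg/ml), in 20 mM KH2PO4 pH 8.5 with 50 nM ^3H-spiked estradiol and 1 mM NADH, 30 min at RT, 1% DMSO. Compound at 1 μM or 0.1 μM; estrone formation by HPLC radioactivity, % inhibition relative to uninhibited conversion.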

As a reminder, the inhibition is the drop in the measured response relative to a control, in per cent. As to `COc1ccnc(NC(=O)CC[C@@H]2c3c[nH]nc3[C@@]3(C)CCC4c5ccc(F)cc5CCC4C23)c1` (stereo partly drawn) [Compound 90, 3-((8aS,12S)-4-fluoro-8a-methyl-1,2,6b,7,8,8a,10,12,12a,12b-decahydronaphtho[2′,1′:4,5]indeno[1,2-c]pyrazol-12-yl)-N-(4-methoxypyridin-2-yl)propanamide], the inhibition at 0.1 µM in assay [1] stood at 70%. In addition, in assay [2], the inhibition at 1 µM was determined as 3%.

`Cc1ccnc(NC(=O)CC[C@@H]2c3c[nH]nc3[C@@]3(C)CCC4c5ccc(F)cc5CCC4C23)c1` (stereo partly drawn) [Compound 93, 3-((8aS,12S)-4-fluoro-8a-methyl-1,2,6b,7,8,8a,10,12,12a,12b-decahydronaphtho[2′,1′:4,5]indeno[1,2-c]pyrazol-12-yl)-N-(4-methylpyridin-2-yl)-propanamide]: in assay [1], the inhibition at 0.1 µM turned out to be 79%. Also, the inhibition at 1 µM in assay [2] came out at 4%.

Consider `C[C@]12CCC3c4ccc(F)cc4CCC3C1[C@H](CCC(=O)Nc1ccc(N3CCOCC3)cn1)c1c[nH]nc12` (stereo partly drawn) [Compound 96, 3-((8aS,12S)-4-fluoro-8a-methyl-1,2,6b,7,8,8a,10,12,12a,12b-decahydronaphtho[2′,1′:4,5]indeno[1,2-c]pyrazol-12-yl)-N-(5-morpholinopyridin-2-yl)propanamide], for which the inhibition at 0.1 µM in assay [1] was determined as 74%. The inhibition at 1 µM in assay [2] was 5%.

On to `C[C@]12CCC3c4ccc(F)cc4CCC3C1[C@H](CCC(=O)Nc1ccc(F)cn1)c1c[nH]nc12` (stereo partly drawn) [Compound 99, 3-((8aS,12S)-4-fluoro-8a-methyl-1,2,6b,7,8,8a,10,12,12a,12b-decahydronaphtho[2′,1′:4,5]indeno[1,2-c]pyrazol-12-yl)-N-(5-fluoropyridin-2-yl)propanamide], for which the inhibition at 0.1 µM in assay [1] came out at 84%. Besides, the inhibition at 1 µM in assay [2] was determined as 4%.

Turning to `C[C@]12CCC3c4ccc(Cl)cc4CCC3C1[C@H](CCC(=O)Nc1cc3c([nH]c1=O)CCCC3)c1c[nH]nc12` (stereo partly drawn) [Compound 123, 3-((8aS,12S)-4-chloro-8a-methyl-1,2,6b,7,8,8a,10,12,12a,12b-decahydronaphtho[2′,1′:4,5]indeno[1,2-c]pyrazol-12-yl)-N-(2-oxo-1,2,5,6,7,8-hexahydroquinolin-3-yl) propanamide], the inhibition at 0.1 µM in assay [1] is 87%. In assay [2], the inhibition at 1 µM is 8%.

In the case of `CN(C)C(=O)c1ccc(NC(=O)CC[C@@H]2c3c[nH]nc3[C@@]3(C)CCC4c5ccc(Cl)cc5CCC4C23)nc1` (stereo partly drawn) [Compound 126, 6-(3-((8aS,12S)-4-chloro-8a-methyl-1,2,6b,7,8,8a,10,12,12a,12b-decahydronaphtho[2′,1′:4,5]indeno[1,2-c]pyrazol-12-yl)propanamido)-N,N-dimethylnicotinamide], in assay [1], the inhibition at 0.1 µM was 89%. Further, in assay [2], the inhibition at 1 µM turned out to be 12%.

Regarding `CC(C)c1ccc(NC(=O)CC[C@@H]2c3c[nH]nc3[C@@]3(C)CCC4c5ccccc5CCC4C23)nc1` (stereo partly drawn) [Compound 138, N-(5-isopropylpyridin-2-yl)-3-((8aS,12S)-8a-methyl-1,2,6b,7,8,8a,10,12,12a,12b-decahydronaphtho[2′,1′:4,5]indeno[1,2-c]pyrazol-12-yl)propanamide], the inhibition at 0.1 µM in assay [1] is 94%. Moreover, the inhibition at 1 µM in assay [2] is 7%.

Consider `COc1ccc(NC(=O)CC[C@@H]2c3c[nH]nc3[C@@]3(C)CCC4c5ccccc5CCC4C23)nc1` (stereo partly drawn) [Compound 141, N-(5-methoxypyridin-2-yl)-3-((8aS,12S)-8a-methyl-1,2,6b,7,8,8a,10,12,12a,12b-decahydronaphtho[2′,1′:4,5]indeno[1,2-c]pyrazol-12-yl)propanamide], for which the inhibition at 0.1 µM in assay [1] was found to be 93%. In assay [2], the inhibition at 1 µM is -1%.

Turning to `COc1ccc(NC(=O)CC[C@@H]2c3c[nH]nc3[C@@]3(C)CCC4c5ccccc5CCC4C23)nn1` (stereo partly drawn) [Compound 156, N-(6-methoxypyridazin-3-yl)-3-((8aS,12S)-8a-methyl-1,2,6b,7,8,8a,10,12,12a,12b-decahydronaphtho[2′,1′:4,5]indeno[1,2-c]pyrazol-12-yl)propanamide], the inhibition at 0.1 µM in assay [1] was 81%. Besides, in assay [2], the inhibition at 1 µM is -3%.

Take `C[C@]12CCC3c4ccccc4CCC3C1[C@H](CCC(=O)Nc1ccc(F)cn1)c1c[nH]nc12` (stereo partly drawn) [Compound 159, N-(5-fluoropyridin-2-yl)-3-((8aS,12S)-8a-methyl-1,2,6b,7,8,8a,10,12,12a,12b-decahydronaphtho[2′,1′:4,5]indeno[1,2-c]pyrazol-12-yl)propanamide]: the inhibition at 0.1 µM in assay [1] came out at 90%. In assay [2], the inhibition at 1 µM came to 3%.

Take `C[C@]12CCC3c4ccccc4CCC3C1[C@H](CCC(=O)Nc1cc(F)ccn1)c1c[nH]nc12` (stereo partly drawn) [Compound 162, N-(4-fluoropyridin-2-yl)-3-((8aS,12S)-8a-methyl-1,2,6b,7,8,8a,10,12,12a,12b-decahydronaphtho[2′,1′:4,5]indeno[1,2-c]pyrazol-12-yl)propanamide]: in assay [1], the inhibition at 0.1 µM is 91%. In addition, the inhibition at 1 µM in assay [2] came out at 9%.

With `COc1ccnc(NC(=O)CC[C@@H]2c3c[nH]nc3[C@@]3(C)CCC4c5ccccc5CCC4C23)c1` (stereo partly drawn) [Compound 165, N-(4-methoxypyridin-2-yl)-3-((8aS,12S)-8a-methyl-1,2,6b,7,8,8a,10,12,12a,12b-decahydronaphtho[2′1′:4,5]indeno[1,2-c]pyrazol-12-yl)propanamide], the inhibition at 0.1 µM in assay [1] is 85%. For the same compound, the inhibition at 1 µM in assay [2] is -2%.

`Cc1ccnc(NC(=O)CC[C@@H]2c3c[nH]nc3[C@@]3(C)CCC4c5ccccc5CCC4C23)c1` (stereo partly drawn) [Compound 168, 3-((8aS,12S)-8a-methyl-1,2,6b,7,8,8a,10,12,12a,12b-decahydronaphtho[2′,1′:4,5]indeno[1,2-c]pyrazol-12-yl)-N-(4-methylpyridin-2-yl)propanamide]: the inhibition at 0.1 µM in assay [1] turned out to be 90%. Besides, the inhibition at 1 µM in assay [2] was 5%.

Take `C[C@]12CCC3c4ccccc4CCC3C1[C@H](CCC(=O)Nc1ccccn1)c1c[nH]nc12` (stereo partly drawn) [Compound 171, 3-((8aS,12S)-8a-methyl-1,2,6b,7,8,8a,10,12,12a,12b-decahydronaphtho[2′,1′:4,5]indeno[1,2-c]pyrazol-12-yl)-N-(pyridin-2-yl)propanamide]: the inhibition at 0.1 µM in assay [1] stood at 89%. Moreover, the inhibition at 1 µM in assay [2] is -1%.

For the compound `C[C@]12CCC3c4ccccc4CCC3C1[C@H](CCC(=O)Nc1cnccn1)c1c[nH]nc12` (stereo partly drawn) [Compound 189, 3-((8aS,12S)-8a-methyl-1,2,6b,7,8,8a,10,12,12a,12b-decahydronaphtho[2′,1′:4,5]indeno[1,2-c]pyrazol-12-yl)-N-(pyrazin-2-yl)propanamide], the inhibition at 0.1 µM in assay [1] was determined as 90%. Further, the inhibition at 1 µM in assay [2] worked out at 9%.

As for `C[C@]12CCC3c4cccc(F)c4CCC3C1[C@H](CCC(=O)NC1CCCCC1)c1c[nH]nc12` (stereo partly drawn) [Compound 207, N-cyclohexyl-3-((8aS,12S)-3-fluoro-8a-methyl-1,2,6b,7,8,8a,10,12,12a,12b-decahydronaphtho[2′,1′:4,5]indeno[1,2-c]pyrazol-12-yl)propanamide], in assay [1], the inhibition at 0.1 µM was found to be 95%. Moreover, the inhibition at 1 µM in assay [2] was determined as 4%.

In the case of `C[C@]12CCC3c4cccc(F)c4CCC3C1[C@H](CCC(=O)N1CCCC1)c1c[nH]nc12` (stereo partly drawn) [Compound 210, 3-((8aS,12S)-3-fluoro-8a-methyl-1,2,6b,7,8,8a,10,12,12a,12b-decahydronaphtho[2′,1′:4,5]indeno[1,2-c]pyrazol-12-yl)-1-(pyrrolidin-1-yl)propan-1-one], the inhibition at 0.1 µM in assay [1] was 94%. In addition, the inhibition at 1 µM in assay [2] is 0%.
